The values that follow come from article PMC10208570, “Peptidomimetic antibiotics disrupt the lipopolysaccharide transport bridge of drug-resistant Enterobacteriaceae” (Science Advances, 2023).

The subject of one assay is Citrobacter freundii. The settings on record: CLSI microdilution method; LptA sequence identity 92. How it is done: (§1) MIC assays [Clinical and Laboratory Standards Institute (CLSI) methodology] and serial passage studies were performed as described by Luther et al. ([6]). […] Resistant mutants were isolated, and their MIC values were determined and sent to Microbes NG (Birmingham, United Kingdom) for whole-genome sequencing and bioinformatic analysis.
On the technique in general: Broth dilution looks for growth in wells or tubes with falling amounts of substance.

The subject of another assay is Enterobacter cloacae. Conditions: CLSI microdilution method; LptA sequence identity 86. How it is done:
as §1

In another assay the test system is Escherichia coli. Conditions: CLSI microdilution method; LptA sequence identity 100. How it is done:
as §1

Another assay relates to Klebsiella oxytoca. Conditions: CLSI microdilution method; LptA sequence identity 100. How it is done: as §1
The next assay deals with Morganella morganii. The settings on record: CLSI microdilution method; LptA sequence identity 57. How it is done: as §1
A further assay deals with Pantoea agglomerans. Conditions: CLSI microdilution method; LptA sequence identity 69. How it is done: as §1
For the next assay, the system named is Proteus mirabilis. Conditions: CLSI microdilution method; LptA sequence identity 54. How it is done: as §1
For the next assay, the system named is Proteus vulgaris. Conditions: CLSI microdilution method; LptA sequence identity 55. How it is done: as §1
Another assay has as its system Providencia rettgeri. The settings on record: CLSI microdilution method; LptA sequence identity 54. How it is done: as §1
The next assay relates to Raoultella planticola. Conditions: CLSI microdilution method; LptA sequence identity 84. How it is done:
as §1

Assay [1] has as its system Salmonella enterica subsp. enterica. The settings on record: CLSI microdilution method; LptA sequence identity 91. How it is done: as §1
Another assay deals with Serratia marcescens. The settings on record: CLSI microdilution method; LptA sequence identity 64. How it is done: as §1
For another assay, the system named is Shigella flexneri. The settings on record: CLSI microdilution method; LptA sequence identity 100. How it is done: as §1
Assay [2] concerns Stenotrophomonas maltophilia. Conditions: CLSI microdilution method; LptA sequence identity 25. How it is done:
as §1

The test system of assay [3] is Escherichia coli ATCC 25922 KdsD mutant. Nature of the assay: microbe, parasite or virus in culture. Conditions: Table S9 panel; other mutation. Summed up: (§2)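 First, MICs were measured per CLSI. Next, organisms underwent serial passage. Finally, resistant mutants were isolated, their MICs determined, and whole genomes sequenced with bioinformatic analysis.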
The subject of assay [4] is Escherichia coli ATCC 25922 LptA E84D mutant. Nature of the assay: microbe, parasite or virus in culture. The settings on record: Table S9 panel. In outline:
as §2

In assay [5] the test system is K. pneumoniae ATCC 43816 LptA Q62L mutant. Nature of the assay: microbe, parasite or virus in culture. Conditions: Table S9 panel. In outline: as §2
Assay [6] deals with Klebsiella pneumoniae ATCC 43816 LapB mutant. Nature of the assay: microbe, parasite or virus in culture. Conditions: Table S9 panel; other mutation. In outline: as §2
The test system of assay [7] is Klebsiella pneumoniae ATCC 43816 LptA I36N mutant. Nature of the assay: microbe, parasite or virus in culture. Conditions: Table S9 panel. Summed up:
as §2

In assay [8] the test system is Klebsiella pneumoniae ATCC 43816 LptA I36S mutant. Nature of the assay: microbe, parasite or virus in culture. The settings on record: Table S9 panel. Summed up: as §2
The subject of assay [9] is Klebsiella pneumoniae ATCC 43816 LptA L116Q mutant. Nature of the assay: microbe, parasite or virus in culture. Conditions: Table S9 panel. In outline:
as §2

Assay [10] concerns Klebsiella pneumoniae ATCC 43816 PglJ, PhnJ, ThiH mutant. Nature of the assay: microbe, parasite or virus in culture. The settings on record: Table S9 panel; other mutation. In outline:
as §2

Assay [11] has as its system Klebsiella pneumoniae NCTC 13443 LptA I36S mutant. Nature of the assay: microbe, parasite or virus in culture. Conditions: Table S9 panel. Summed up:
as §2

Assay [12] concerns Klebsiella pneumoniae NCTC 13443 LpxC, LpxD mutant. Nature of the assay: microbe, parasite or virus in culture. The settings on record: Table S9 panel; other mutation. Summed up:
as §2

Assay [13] relates to Klebsiella pneumoniae NCTC 13443 YejM mutant. Nature of the assay: microbe, parasite or virus in culture. Conditions: Table S9 panel; other mutation. Summed up:
as §2

The target of a further assay is T1, LptAmD33A (Escherichia coli, UniProt P0ADV1, D33A).
T1 construct: His6-GB1 (N, cleaved yes); made in house; host or cells: E. coli BL21 (DE3)
Nature of the assay: FP indirect (competition) binding assay. Further details: species or system E. coli. How it is done: (§3) Protein stocks were purified and concentrated in buffer 1 [50 mM Na-Pi (pH 7) and 150 mM NaCl] and, if necessary, diluted to desired concentrations using buffer 2 [50 mM Na-Pi (pH 7), 150 mM NaCl, and 0.05% Tween 20]. Peptide stocks and fluorescently labeled peptide stocks were made in buffer 2. Every serial dilution consisted of 24 wells, the first well with the highest concentrate and the last well (well 24) with the lowest. First, 50 μl of buffer 2 was added to the wells 2 to 24 of each serial dilution. Then, 100 μl of concentrated unlabeled peptide/protein in their respective buffers was added to the first well. Fifty microliters were taken from the first well and added to the second well for a 1:1 serial dilution and continued for the 24 wells. […] Plates were covered with adhesive seals and left to incubate overnight at 4°C before FP measurements the next day. Anisotropy was measured using the Tecan Safire2 plate reader using a 10-nm bandwidth and setting the excitation and emission wavelengths to 635 and 670 nm, respectively. The G-factor (G) was also determined empirically as 1.094 for the instrument and included in all the anisotropy calculations.
(§4) For the indirect binding assays, r was calculated in the same manner as the direct binding assays. […] The control was subtracted from r to yield r′. Data were fit to a sigmoidal interpolation model on GraphPad Prism 9, and an IC50 was generated for each unlabeled peptide or protein measured.

Another assay has as its target T2, LptAmQ62L, D33A (Escherichia coli, UniProt P0ADV1, D33A/Q62L).
T2 construct: His6-GB1 (N, cleaved yes); made in house; host or cells: E. coli BL21 (DE3)
Nature of the assay: FP indirect (competition) binding assay. Further details: species or system E. coli. How it is done:
as §3, §4

SMILES strings stand for the structures. Converted amounts (≈) assume the structure as drawn. Where a SMILES comes first, the peptide text is derived from it. Bridges are numbered along the chain shown (N, C = ends). [ ]: non-standard residue; d: D form. The star is where a group is joined. Val(Nα-amidino) = CC(C)[C@H](NC(=N)N)C(=O)*; Hyp = O=C(O)[C@@H]1C[C@@H](O)CN1; Pen = CC(C)(S)[C@H](N)C(=O)O; dDab = NCC[C@@H](N)C(=O)O; Dab = NCC[C@H](N)C(=O)O Where only a bound is given, the exact number is not on record here.

T1 sequence (P0ADV1 28-159 D33A): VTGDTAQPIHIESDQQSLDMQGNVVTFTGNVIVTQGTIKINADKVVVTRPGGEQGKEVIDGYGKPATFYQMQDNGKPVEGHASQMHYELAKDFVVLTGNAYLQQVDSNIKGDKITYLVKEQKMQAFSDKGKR
T2 sequence (P0ADV1 28-159 D33A/Q62L): as the sequence (P0ADV1 28-159 D33A) above, with Q35L counted along it

With `CC[C@H](C)[C@H](NC(=O)[C@@H]1C[C@@H](O)CN1C(=O)[C@@H](N)C(C)C)C(=O)N[C@H](C(=O)N[C@@H](Cc1ccc(O)cc1)C(=O)N[C@@H]1C(=O)N[C@@H](CC(N)=O)C(=O)N[C@@H](CCCNC(=N)N)C(=O)N[C@@H](CCN)C(=O)N[C@@H]([C@@H](C)O)C(=O)N[C@H](CCN)C(=O)N[C@@H](CCCCN)C(=O)N[C@H](C(=O)N[C@@H](CCN)C(=O)N[C@@H](CCCNC(=N)N)C(=O)N[C@@H](Cc2ccc(O)cc2)C(=O)O)CSSC1(C)C)[C@@H](C)O` [Compound 6] (H-V[Hyp]ITY[Pen]NR[Dab]T[dDab]KC[Dab]RY-OH; disulfide 6-13), in the assay on Citrobacter freundii, the “MIC Citrobacter freundii” value worked out at 0.13 µg/mL (≈ 0.0663 µM). In addition, the “MIC Enterobacter cloacae” value with Enterobacter cloacae is recorded as 0.13 µg/mL (≈ 0.0663 µM). The “MIC Escherichia coli” value with Escherichia coli is given as 0.03 µg/mL (≈ 0.0153 µM). The “MIC Klebsiella oxytoca” value in the assay on Klebsiella oxytoca is reported as 0.25 µg/mL (≈ 0.128 µM). Moreover, the “MIC Morganella morganii” value in the assay with Morganella morganii was > 8 µg/mL. Also, in the assay on Pantoea agglomerans, the “MIC Pantoea agglomerans” value worked out at 4 µg/mL (≈ 2.04 µM). In addition, the “MIC Proteus mirabilis” value against Proteus mirabilis was > 8 µg/mL. Besides, the “MIC Proteus vulgaris” value in the assay with Proteus vulgaris is > 8 µg/mL. Also, the “MIC Providencia rettgeri” value in the assay on Providencia rettgeri is given as > 8 µg/mL. Further, the “MIC Raoultella planticola” value in the assay on Raoultella planticola is reported as 0.06 µg/mL (≈ 0.0306 µM). Besides, in [1], the “MIC Salmonella enterica subsp. enterica” value is listed as 0.5 µg/mL (≈ 0.255 µM). Besides, in the assay on Serratia marcescens, the “MIC Serratia marcescens” value was > 8 µg/mL. The “MIC Shigella flexneri” value against Shigella flexneri is reported as 0.03 µg/mL (≈ 0.0153 µM). Besides, the “MIC Stenotrophomonas maltophilia” value in [2] was > 8 µg/mL.
On to `CC[C@H](C)[C@H](NC(=O)[C@@H]1C[C@@H](O)CN1C(=O)[C@@H](NC(=N)N)C(C)C)C(=O)N[C@H](C(=O)N[C@@H](Cc1ccc(O)cc1)C(=O)N[C@@H]1C(=O)N[C@@H](CC(N)=O)C(=O)N[C@@H](CCCNC(=N)N)C(=O)N[C@@H](CCN)C(=O)N[C@@H]([C@@H](C)O)C(=O)N[C@H](CCN)C(=O)N[C@@H](CCCCN)C(=O)N[C@H](C(=O)N[C@@H](CCN)C(=O)N[C@@H](CCCNC(=N)N)C(=O)N[C@@H](Cc2ccc(O)cc2)C(=O)O)CSSC1(C)C)[C@@H](C)O` [Compound 7] ({Val(Nα-amidino)}-[Hyp]ITY[Pen]NR[Dab]T[dDab]KC[Dab]RY-OH; disulfide 5-12), for which, in [3], the “MIC Escherichia coli ATCC 25922 KdsD (2x)” value amounted to 0.5 µg/mL (≈ 0.25 µM). Besides, the “MIC Escherichia coli ATCC 25922 LptA E84D (1x)” value in [4] worked out at 1 µg/mL (≈ 0.5 µM). The “MIC Klebsiella pneumoniae ATCC 43816 LptA Q62L (4x)” value in assay [5] came out at 8 µg/mL (≈ 4 µM). Also, the “MIC Klebsiella pneumoniae ATCC 43816 LapB (1x)” value in assay [6] worked out at 0.5 µg/mL (≈ 0.25 µM). Moreover, the “MIC Klebsiella pneumoniae ATCC 43816 LptA I36N (1x)” value in [7] is on record as 2 µg/mL (≈ 0.999 µM). Moreover, the “MIC Klebsiella pneumoniae ATCC 43816 LptA I36S (1x)” value in assay [8] is reported as 2 µg/mL (≈ 0.999 µM). For the same compound, in assay [9], the “MIC Klebsiella pneumoniae ATCC 43816 LptA L116Q (1x)” value was found to be 2 µg/mL (≈ 0.999 µM). The “MIC Klebsiella pneumoniae ATCC 43816 PglJ, PhnJ, ThiH (1x)” value in assay [10] was 0.5 µg/mL (≈ 0.25 µM). Besides, in assay [11], the “MIC Klebsiella pneumoniae NCTC 13443 LptA I36S (2x)” value stood at 8 µg/mL (≈ 4 µM). Moreover, the “MIC Klebsiella pneumoniae NCTC 13443 LpxC, LpxD (1x)” value in [12] stood at 1 µg/mL (≈ 0.5 µM). Also, the “MIC Klebsiella pneumoniae NCTC 13443 YejM (1x)” value in assay [13] was determined as 2 µg/mL (≈ 0.999 µM). For the same compound, the “MIC Citrobacter freundii” value with Citrobacter freundii came out at 0.5 µg/mL (≈ 0.25 µM). Besides, the “MIC Enterobacter cloacae” value in the assay with Enterobacter cloacae was 0.5 µg/mL (≈ 0.25 µM). For the same compound, in the assay with Escherichia coli, the “MIC Escherichia coli” value amounted to 0.06 µg/mL (≈ 0.03 µM). In addition, in the assay on Klebsiella oxytoca, the “MIC Klebsiella oxytoca” value is on record as 0.5 µg/mL (≈ 0.25 µM). Besides, in the assay with Morganella morganii, the “MIC Morganella morganii” value is > 8 µg/mL. The “MIC Pantoea agglomerans” value against Pantoea agglomerans is given as > 8 µg/mL. Further, the “MIC Proteus mirabilis” value in the assay on Proteus mirabilis was > 8 µg/mL. Further, the “MIC Proteus vulgaris” value against Proteus vulgaris was > 8 µg/mL. In the assay on Providencia rettgeri, the “MIC Providencia rettgeri” value is > 8 µg/mL. Moreover, the “MIC Raoultella planticola” value in the assay with Raoultella planticola stood at 0.25 µg/mL (≈ 0.125 µM). The “MIC Salmonella enterica subsp. enterica” value in assay [1] turned out to be 1 µg/mL (≈ 0.5 µM). The “MIC Serratia marcescens” value against Serratia marcescens is on record as > 8 µg/mL. Also, in the assay with Shigella flexneri, the “MIC Shigella flexneri” value is recorded as 0.06 µg/mL (≈ 0.03 µM). Also, the “MIC Stenotrophomonas maltophilia” value in assay [2] is listed as > 8 µg/mL. In addition, the IC50 on LptAmD33A was determined as 32.3 ± 3.4 nM; on LptAmQ62L, D33A, 23.2 ± 10 nM. Also, the Ki at LptAmD33A came to 23.4 ± 2.5 nM; at LptAmQ62L, D33A, 17 ± 7.3 nM.

What is called IC50 is the point on the concentration scale where inhibition reaches its midpoint. Low readings indicate higher potency, high ones lower potency. In general, Ki refers to the dissociation constant of the complex between target and ligand, obtained from inhibition or displacement.
